Where “and” joins values, the source holds several entries; their conditions need not be identical. Equal entries are not always repeated. Toxic doses and inconclusive results are not listed.
System: BDF1 mice, P388 leukemia ip, median survival T/C
Experiment: NCI In Vivo Anticancer Drug Screen. Data for tumor model P388 Leukemia (intraperitoneal) in B6D2F1 (BDF1) mice
Settings: endpoint: median survival time, higher = longer survival
How it was run: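 In tumour-bearing mice, survival after compound treatment is set against the vehicle group and given as a quotient.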

[1] = dose: 50.0 mg/kg/injection, schedule: Q04DX003 (ip), vehicle: Klucel (hydroxypropylcellulose) (HPC)
[2] = dose: 12.5 mg/kg/injection, schedule: Q01DX009 (ip), vehicle: Klucel (hydroxypropylcellulose) (HPC)
[3] = dose: 25.0 mg/kg/injection, schedule: Q01DX009 (ip), vehicle: Klucel (hydroxypropylcellulose) (HPC)
[4] = dose: 12.5 mg/kg/injection, schedule: Q04DX003 (ip), vehicle: Klucel (hydroxypropylcellulose) (HPC)
[5] = dose: 100.0 mg/kg/injection, schedule: Q01DX009 (ip), vehicle: saline with Tween-80
[6] = dose: 200.0 mg/kg/injection, schedule: Q01DX009 (ip), vehicle: saline with Tween-80

CC(c1ccccc1)C1N(c2ccccc2)CCN1c1ccccc1 (stereo unspecified)
T/C [1]: 107 % of control | T/C (dose: 100.0 mg/kg/injection, schedule: Q04DX003 (ip), vehicle: Klucel (hydroxypropylcellulose) (HPC)): 96 % of control | T/C (dose: 200.0 mg/kg/injection, schedule: Q04DX003 (ip), vehicle: Klucel (hydroxypropylcellulose) (HPC)): 107 % of control | T/C (dose: 400.0 mg/kg/injection, schedule: Q04DX003 (ip), vehicle: Klucel (hydroxypropylcellulose) (HPC)): 111 % of control

COc1cc2c(ccc3c4cc(OC)c(OC)cc4c[n+](C)c23)cc1O
T/C [2]: 165 % of control | T/C [3]: 173 % of control | T/C (dose: 25.0 mg/kg/injection, schedule: Q01DX010 (ip), vehicle: saline): 190 % of control | T/C (dose: 40.0 mg/kg/injection, schedule: Q01DX009 (ip), vehicle: saline): 190 % of control | T/C (dose: 40.0 mg/kg/injection, schedule: Q04DX003 (ip), vehicle: saline): 190 % of control | T/C (dose: 50.0 mg/kg/injection, schedule: Q01DX009 (ip), vehicle: Klucel (hydroxypropylcellulose) (HPC)): 219 % of control | T/C (dose: 50.0 mg/kg/injection, schedule: Q01DX010 (ip), vehicle: saline): 210 % of control | T/C (dose: 80.0 mg/kg/injection, schedule: Q01DX009 (ip), vehicle: saline): 210 % of control | T/C (dose: 80.0 mg/kg/injection, schedule: Q04DX003 (ip), vehicle: saline): 180 % of control | T/C (dose: 100.0 mg/kg/injection, schedule: Q01DX009 (ip), vehicle: Klucel (hydroxypropylcellulose) (HPC)): 230 % of control | T/C (dose: 100.0 mg/kg/injection, schedule: Q01DX010 (ip), vehicle: saline): 265 % of control | T/C (dose: 160.0 mg/kg/injection, schedule: Q01DX009 (ip), vehicle: saline): 270 % of control | T/C (dose: 160.0 mg/kg/injection, schedule: Q04DX003 (ip), vehicle: saline): 215 % of control | T/C (dose: 320.0 mg/kg/injection, schedule: Q01DX009 (ip), vehicle: saline): 205 % of control | T/C (dose: 320.0 mg/kg/injection, schedule: Q04DX003 (ip), vehicle: saline): 270 % of control

CC[C@@]1(O)C(=O)OCc2c1cc1n(c2=O)Cc2cc3c(OC)cccc3nc2-1
T/C (dose: 0.5 mg/kg/injection, schedule: Q01DX009 (ip), vehicle: carboxymethylcellulose (CMC)): 182 % of control | T/C (dose: 1.0 mg/kg/injection, schedule: Q01DX009 (ip), vehicle: carboxymethylcellulose (CMC)): 195 % of control

O=C(CC(Cl)(C(F)(F)F)C(F)(F)F)c1cccc([N+](=O)[O-])c1
T/C (dose: 12.5 mg/kg/injection, schedule: Q01DX001 (ip), vehicle: saline with Tween-80): 113 % of control | T/C (dose: 25.0 mg/kg/injection, schedule: Q01DX001 (ip), vehicle: saline with Tween-80): 109 % of control | T/C (dose: 50.0 mg/kg/injection, schedule: Q01DX001 (ip), vehicle: saline with Tween-80): 109 % of control

CCNCc1cc(Nc2cc(C)nc(/N=C(\N)Nc3ccc(Cl)c(Cl)c3)n2)ccc1OC
T/C (dose: 6.25 mg/kg/injection, schedule: Q01DX009 (ip), vehicle: Klucel (hydroxypropylcellulose) (HPC)): 90 % of control | T/C (dose: 8.75 mg/kg/injection, schedule: Q04DX003 (ip), vehicle: Klucel (hydroxypropylcellulose) (HPC)): 112 % of control | T/C [2]: 100 % of control | T/C (dose: 17.5 mg/kg/injection, schedule: Q04DX003 (ip), vehicle: Klucel (hydroxypropylcellulose) (HPC)): 108 % of control | T/C [3]: 90 % of control | T/C (dose: 33.0 mg/kg/injection, schedule: Q04DX003 (ip), vehicle: Klucel (hydroxypropylcellulose) (HPC)): 116 % of control | T/C (dose: 35.0 mg/kg/injection, schedule: Q04DX003 (ip), vehicle: Klucel (hydroxypropylcellulose) (HPC)): 108 % of control | T/C [1]: 108 % of control | T/C (dose: 75.0 mg/kg/injection, schedule: Q04DX003 (ip), vehicle: Klucel (hydroxypropylcellulose) (HPC)): 108 % of control | T/C (dose: 80.0 mg/kg/injection, schedule: Q04DX003 (ip), vehicle: Klucel (hydroxypropylcellulose) (HPC)): 109 % of control

CC(C(=O)O)[Se](=O)O (stereo unspecified)
T/C (dose: 12.5 mg/kg/injection, schedule: Q04DX003 (ip), vehicle: saline): 101 % of control | T/C (dose: 25.0 mg/kg/injection, schedule: Q04DX003 (ip), vehicle: saline): 101 % of control | T/C (dose: 50.0 mg/kg/injection, schedule: Q04DX003 (ip), vehicle: saline): 100 % of control

COc1ccc2nc3cc(Cl)ccc3c(Nc3ccc(O)c(CN(CCCl)CCCl)c3)c2c1
T/C (dose: 0.06 mg/kg/injection, schedule: Q01DX009 (ip), vehicle: saline with Tween-80): 105 % of control | T/C (dose: 0.09 mg/kg/injection, schedule: Q01DX009 (ip), vehicle: saline with Tween-80): 99 % of control | T/C (dose: 0.13 mg/kg/injection, schedule: Q01DX009 (ip), vehicle: saline with Tween-80): 89 % of control | T/C (dose: 0.22 mg/kg/injection, schedule: Q04DX003 (ip), vehicle: saline): 100 % of control | T/C (dose: 0.33 mg/kg/injection, schedule: Q04DX003 (ip), vehicle: saline): 118 % of control | T/C (dose: 0.5 mg/kg/injection, schedule: Q01DX009 (ip), vehicle: saline): 177 % of control | T/C (dose: 1.0 mg/kg/injection, schedule: Q01DX009 (ip), vehicle: saline): 163 % of control | T/C (dose: 1.0 mg/kg/injection, schedule: Q04DX003 (ip), vehicle: saline): 159 % of control | T/C (dose: 1.33 mg/kg/injection, schedule: Q04DX003 (ip), vehicle: saline): 154 % of control | T/C (dose: 2.0 mg/kg/injection, schedule: Q01DX009 (ip), vehicle: saline): 104 % of control | T/C (dose: 2.0 mg/kg/injection, schedule: Q04DX003 (ip), vehicle: saline): 158 % of control and 181 % of control | T/C (dose: 3.0 mg/kg/injection, schedule: Q04DX003 (ip), vehicle: saline): 158 % of control and 179 % of control | T/C (dose: 4.5 mg/kg/injection, schedule: Q04DX003 (ip), vehicle: saline): 195 % of control | T/C (dose: 6.7 mg/kg/injection, schedule: Q04DX003 (ip), vehicle: saline): 179 % of control | T/C (dose: 10.0 mg/kg/injection, schedule: Q04DX003 (ip), vehicle: saline): 183 % of control

c1ccc2c3csc4ccccc4c-3nc2c1
T/C (dose: 1.56 mg/kg/injection, schedule: Q04DX003 (ip), vehicle: Klucel (hydroxypropylcellulose) (HPC)): 95 % of control | T/C (dose: 3.12 mg/kg/injection, schedule: Q04DX003 (ip), vehicle: Klucel (hydroxypropylcellulose) (HPC)): 95 % of control | T/C (dose: 5.7 mg/kg/injection, schedule: Q01DX009 (ip), vehicle: Klucel (hydroxypropylcellulose) (HPC)): 92 % of control and 113 % of control | T/C (dose: 6.25 mg/kg/injection, schedule: Q04DX003 (ip), vehicle: Klucel (hydroxypropylcellulose) (HPC)): 104 % of control | T/C (dose: 8.75 mg/kg/injection, schedule: Q01DX009 (ip), vehicle: Klucel (hydroxypropylcellulose) (HPC)): 88 % of control and 118 % of control | T/C [4]: 104 % of control | T/C (dose: 13.0 mg/kg/injection, schedule: Q01DX009 (ip), vehicle: Klucel (hydroxypropylcellulose) (HPC)): 92 % of control and 113 % of control

[Cl][Cr]([Cl])[Cl].[NH-]CC[N-]CC[NH-]
T/C (dose: 50.0 mg/kg/injection, schedule: Q01DX009 (ip), vehicle: saline with Tween-80): 116 % of control | T/C [5]: 100 % of control | T/C [6]: 100 % of control

CCOC(=O)C/C(C)=N/NC(=O)CC(=O)N/N=C(\C)CC(=O)OCC
T/C (dose: 75.0 mg/kg/injection, schedule: Q01DX009 (ip), vehicle: saline): 109 % of control | T/C (dose: 150.0 mg/kg/injection, schedule: Q01DX009 (ip), vehicle: saline): 105 % of control | T/C (dose: 300.0 mg/kg/injection, schedule: Q01DX009 (ip), vehicle: saline): 103 % of control

C[C@]12CCC(=O)C=C1CC[C@@H]1[C@@H]2[C@@H](O)C[C@@]2(C)[C@H]1CC[C@]2(O)C(=O)COC(=O)COCC(=O)O
T/C [5]: 109 % of control | T/C [6]: 109 % of control | T/C (dose: 400.0 mg/kg/injection, schedule: Q01DX009 (ip), vehicle: saline with Tween-80): 109 % of control

O=c1[nH]c(=O)n(C2CC(O)C(CO)O2)cc1Br (stereo unspecified)
T/C (dose: 100.0 mg/kg/injection, schedule: Q04DX003 (ip), vehicle: saline sonified): 100 % of control | T/C (dose: 200.0 mg/kg/injection, schedule: Q04DX003 (ip), vehicle: saline sonified): 100 % of control | T/C (dose: 400.0 mg/kg/injection, schedule: Q04DX003 (ip), vehicle: saline sonified): 100 % of control

O=S1(=O)N2CN3CN(C2)CN1C3
T/C [4]: 121 % of control | T/C [1]: 105 % of control

Cc1ccc(C(=O)C2C(c3ccccc3)N2Cc2ccccc2)cc1 (stereo unspecified)
T/C (dose: 100.0 mg/kg/injection, schedule: Q04DX003 (ip), vehicle: saline with Tween-80): 94 % of control and 99 % of control | T/C (dose: 200.0 mg/kg/injection, schedule: Q04DX003 (ip), vehicle: saline with Tween-80): 109 % of control and 92 % of control | T/C (dose: 400.0 mg/kg/injection, schedule: Q04DX003 (ip), vehicle: saline with Tween-80): 99 % of control and 87 % of control

Reference: PubChem BioAssay AID328 (DTP/NCI, 2004)
